Assay results: PMC8213057, “Targeting ALK2: An Open Science Approach to Developing Therapeutics for the Treatment of Diffuse Intrinsic Pontine Glioma” (Journal of Medicinal Chemistry, 2020)

Assays:
CAMK2d = CAMK2d (Homo sapiens, UniProt Q13557); details: 1 μM; Run 1, Run 2
WNK2 = WNK2 (Homo sapiens, UniProt Q9Y3S1); assay: biochemical; details: read-out: % enzyme activity, 1 μM; Run 1, Run 2
MEK1 = MEK1 (Homo sapiens, UniProt Q02750); details: 1 μM; Run 1, Run 2
MEKK3 = target: T1, MEKK3 (Homo sapiens, UniProt Q99759); details: 1 μM; Run 1, Run 2
T1 sequence (Q99759 1-626): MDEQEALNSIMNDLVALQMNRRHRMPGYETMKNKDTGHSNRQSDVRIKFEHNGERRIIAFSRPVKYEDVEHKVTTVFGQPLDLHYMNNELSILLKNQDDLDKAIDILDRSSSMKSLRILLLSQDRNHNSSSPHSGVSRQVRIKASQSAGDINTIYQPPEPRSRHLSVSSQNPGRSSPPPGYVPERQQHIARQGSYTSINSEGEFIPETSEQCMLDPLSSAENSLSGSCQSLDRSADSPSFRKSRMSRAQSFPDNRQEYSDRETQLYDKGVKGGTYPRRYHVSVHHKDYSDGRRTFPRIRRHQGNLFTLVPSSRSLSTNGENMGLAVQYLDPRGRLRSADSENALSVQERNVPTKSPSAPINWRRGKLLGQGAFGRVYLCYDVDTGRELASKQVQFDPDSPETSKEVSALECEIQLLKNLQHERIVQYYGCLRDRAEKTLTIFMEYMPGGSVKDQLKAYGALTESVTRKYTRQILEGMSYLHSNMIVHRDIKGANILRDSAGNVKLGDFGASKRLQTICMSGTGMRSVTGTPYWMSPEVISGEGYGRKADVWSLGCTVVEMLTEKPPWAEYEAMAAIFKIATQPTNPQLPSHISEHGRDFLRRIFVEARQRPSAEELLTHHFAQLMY

DAPK1 = DAPK1 (Homo sapiens, UniProt P53355); details: 1 μM; Run 1, Run 2
LKB1 = target: T2, LKB1 (Homo sapiens, UniProt Q15831); details: 1 μM; Run 1, Run 2
T2 sequence (Q15831 1-433): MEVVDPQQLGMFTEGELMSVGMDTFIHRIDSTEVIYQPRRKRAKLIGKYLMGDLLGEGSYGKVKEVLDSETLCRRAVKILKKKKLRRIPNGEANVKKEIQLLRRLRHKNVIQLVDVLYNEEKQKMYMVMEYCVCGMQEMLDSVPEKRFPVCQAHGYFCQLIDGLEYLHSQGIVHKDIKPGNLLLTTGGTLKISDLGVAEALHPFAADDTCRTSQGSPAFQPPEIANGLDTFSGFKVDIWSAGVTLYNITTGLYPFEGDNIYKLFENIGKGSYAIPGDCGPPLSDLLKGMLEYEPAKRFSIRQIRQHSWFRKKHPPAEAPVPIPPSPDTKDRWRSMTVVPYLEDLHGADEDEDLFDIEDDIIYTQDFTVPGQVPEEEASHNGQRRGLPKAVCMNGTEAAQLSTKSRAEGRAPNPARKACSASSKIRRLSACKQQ
T2 sequence (Q7RTN6 1-431 partner): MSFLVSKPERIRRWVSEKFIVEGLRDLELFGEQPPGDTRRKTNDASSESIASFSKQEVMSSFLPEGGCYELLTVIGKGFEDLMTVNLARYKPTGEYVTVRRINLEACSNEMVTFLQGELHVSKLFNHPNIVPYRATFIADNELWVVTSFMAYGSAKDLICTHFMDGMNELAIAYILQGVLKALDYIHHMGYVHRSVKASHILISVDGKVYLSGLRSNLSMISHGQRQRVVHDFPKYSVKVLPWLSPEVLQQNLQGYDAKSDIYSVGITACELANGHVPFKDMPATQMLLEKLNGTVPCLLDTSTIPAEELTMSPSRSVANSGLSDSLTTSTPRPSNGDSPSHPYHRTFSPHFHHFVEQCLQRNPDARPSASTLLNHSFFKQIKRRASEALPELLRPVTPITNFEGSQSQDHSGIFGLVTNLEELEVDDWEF
T2 sequence (Q9Y376 1-341 partner): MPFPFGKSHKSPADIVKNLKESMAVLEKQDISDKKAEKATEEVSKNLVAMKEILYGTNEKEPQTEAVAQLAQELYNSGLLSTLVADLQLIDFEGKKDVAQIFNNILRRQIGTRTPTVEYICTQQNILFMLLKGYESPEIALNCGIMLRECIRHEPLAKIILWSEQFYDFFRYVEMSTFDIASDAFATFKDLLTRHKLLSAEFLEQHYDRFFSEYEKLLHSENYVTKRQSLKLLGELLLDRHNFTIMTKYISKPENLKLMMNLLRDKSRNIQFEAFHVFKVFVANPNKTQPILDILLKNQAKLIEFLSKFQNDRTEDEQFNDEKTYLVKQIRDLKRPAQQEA

SGK2 = SGK2 (Homo sapiens, UniProt Q9HBY8); details: 1 μM; Run 1, Run 2
MLK2/MAP3K10 = MLK2/MAP3K10 (Homo sapiens, UniProt Q02779); assay: biochemical; details: read-out: % enzyme activity, 1 μM; Run 1, Run 2

Sequence of SGK2 (Q9HBY8 whole entry): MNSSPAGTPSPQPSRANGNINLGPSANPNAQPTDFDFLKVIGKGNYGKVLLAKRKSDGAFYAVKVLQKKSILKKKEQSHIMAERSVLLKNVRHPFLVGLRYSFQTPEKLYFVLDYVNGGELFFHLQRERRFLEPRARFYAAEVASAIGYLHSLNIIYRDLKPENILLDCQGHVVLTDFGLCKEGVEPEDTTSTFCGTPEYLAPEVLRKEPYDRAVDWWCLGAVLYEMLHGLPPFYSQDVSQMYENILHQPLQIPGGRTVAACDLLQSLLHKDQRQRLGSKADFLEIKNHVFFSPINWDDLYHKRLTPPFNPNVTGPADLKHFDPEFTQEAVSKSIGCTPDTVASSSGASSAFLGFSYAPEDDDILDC
Sequence of DAPK1 (P53355 whole entry): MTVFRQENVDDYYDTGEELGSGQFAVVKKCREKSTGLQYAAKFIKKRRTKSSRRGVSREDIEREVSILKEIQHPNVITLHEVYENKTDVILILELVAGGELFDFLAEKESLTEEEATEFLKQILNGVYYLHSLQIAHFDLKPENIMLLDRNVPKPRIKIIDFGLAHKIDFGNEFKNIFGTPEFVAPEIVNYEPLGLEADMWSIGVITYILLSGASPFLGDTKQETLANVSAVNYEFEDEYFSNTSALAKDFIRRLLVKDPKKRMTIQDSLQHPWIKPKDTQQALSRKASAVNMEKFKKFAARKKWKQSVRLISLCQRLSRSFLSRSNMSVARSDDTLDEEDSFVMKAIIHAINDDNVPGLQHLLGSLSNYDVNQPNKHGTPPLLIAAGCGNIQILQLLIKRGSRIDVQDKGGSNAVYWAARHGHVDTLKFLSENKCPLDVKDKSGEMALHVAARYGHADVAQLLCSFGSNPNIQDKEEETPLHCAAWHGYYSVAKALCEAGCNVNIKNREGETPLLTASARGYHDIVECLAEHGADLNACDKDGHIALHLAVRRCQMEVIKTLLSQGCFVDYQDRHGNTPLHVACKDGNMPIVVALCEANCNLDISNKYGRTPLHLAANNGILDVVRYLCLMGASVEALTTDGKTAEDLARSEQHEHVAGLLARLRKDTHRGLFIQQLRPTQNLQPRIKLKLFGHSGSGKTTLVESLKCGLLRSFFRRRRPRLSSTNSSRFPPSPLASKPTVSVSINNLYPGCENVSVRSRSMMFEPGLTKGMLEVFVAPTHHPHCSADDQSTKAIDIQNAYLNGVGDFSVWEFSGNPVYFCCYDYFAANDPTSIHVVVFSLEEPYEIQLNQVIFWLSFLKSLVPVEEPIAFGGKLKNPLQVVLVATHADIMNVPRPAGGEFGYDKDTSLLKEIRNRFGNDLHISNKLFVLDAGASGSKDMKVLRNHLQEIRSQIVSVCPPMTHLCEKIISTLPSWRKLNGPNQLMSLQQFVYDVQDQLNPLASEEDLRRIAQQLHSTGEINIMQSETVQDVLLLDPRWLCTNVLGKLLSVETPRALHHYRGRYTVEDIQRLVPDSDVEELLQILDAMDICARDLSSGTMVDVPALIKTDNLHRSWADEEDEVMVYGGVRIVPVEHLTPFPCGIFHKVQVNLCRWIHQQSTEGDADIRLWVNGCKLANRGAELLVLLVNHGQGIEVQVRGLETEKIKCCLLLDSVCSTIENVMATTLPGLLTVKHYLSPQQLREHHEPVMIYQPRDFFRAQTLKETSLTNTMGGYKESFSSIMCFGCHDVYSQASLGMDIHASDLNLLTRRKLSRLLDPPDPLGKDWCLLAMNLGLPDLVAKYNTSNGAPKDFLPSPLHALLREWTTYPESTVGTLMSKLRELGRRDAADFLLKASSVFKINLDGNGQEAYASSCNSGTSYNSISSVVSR
Sequence of CAMK2d (Q13557 whole entry): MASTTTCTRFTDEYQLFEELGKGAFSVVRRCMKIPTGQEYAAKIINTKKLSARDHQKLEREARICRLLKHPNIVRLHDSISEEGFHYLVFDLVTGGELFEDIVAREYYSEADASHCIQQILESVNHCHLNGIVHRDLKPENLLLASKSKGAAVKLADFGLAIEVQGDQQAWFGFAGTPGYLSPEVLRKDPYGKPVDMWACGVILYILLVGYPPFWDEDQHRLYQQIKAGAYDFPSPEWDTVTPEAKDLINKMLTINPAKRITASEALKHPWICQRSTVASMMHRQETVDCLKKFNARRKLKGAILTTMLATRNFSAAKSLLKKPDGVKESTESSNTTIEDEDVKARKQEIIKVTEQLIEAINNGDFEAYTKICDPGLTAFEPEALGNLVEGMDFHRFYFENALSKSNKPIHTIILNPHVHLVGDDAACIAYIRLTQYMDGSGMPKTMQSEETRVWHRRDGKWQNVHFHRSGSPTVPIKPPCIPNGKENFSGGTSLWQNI
Sequence of WNK2 (Q9Y3S1 whole entry, species assumed): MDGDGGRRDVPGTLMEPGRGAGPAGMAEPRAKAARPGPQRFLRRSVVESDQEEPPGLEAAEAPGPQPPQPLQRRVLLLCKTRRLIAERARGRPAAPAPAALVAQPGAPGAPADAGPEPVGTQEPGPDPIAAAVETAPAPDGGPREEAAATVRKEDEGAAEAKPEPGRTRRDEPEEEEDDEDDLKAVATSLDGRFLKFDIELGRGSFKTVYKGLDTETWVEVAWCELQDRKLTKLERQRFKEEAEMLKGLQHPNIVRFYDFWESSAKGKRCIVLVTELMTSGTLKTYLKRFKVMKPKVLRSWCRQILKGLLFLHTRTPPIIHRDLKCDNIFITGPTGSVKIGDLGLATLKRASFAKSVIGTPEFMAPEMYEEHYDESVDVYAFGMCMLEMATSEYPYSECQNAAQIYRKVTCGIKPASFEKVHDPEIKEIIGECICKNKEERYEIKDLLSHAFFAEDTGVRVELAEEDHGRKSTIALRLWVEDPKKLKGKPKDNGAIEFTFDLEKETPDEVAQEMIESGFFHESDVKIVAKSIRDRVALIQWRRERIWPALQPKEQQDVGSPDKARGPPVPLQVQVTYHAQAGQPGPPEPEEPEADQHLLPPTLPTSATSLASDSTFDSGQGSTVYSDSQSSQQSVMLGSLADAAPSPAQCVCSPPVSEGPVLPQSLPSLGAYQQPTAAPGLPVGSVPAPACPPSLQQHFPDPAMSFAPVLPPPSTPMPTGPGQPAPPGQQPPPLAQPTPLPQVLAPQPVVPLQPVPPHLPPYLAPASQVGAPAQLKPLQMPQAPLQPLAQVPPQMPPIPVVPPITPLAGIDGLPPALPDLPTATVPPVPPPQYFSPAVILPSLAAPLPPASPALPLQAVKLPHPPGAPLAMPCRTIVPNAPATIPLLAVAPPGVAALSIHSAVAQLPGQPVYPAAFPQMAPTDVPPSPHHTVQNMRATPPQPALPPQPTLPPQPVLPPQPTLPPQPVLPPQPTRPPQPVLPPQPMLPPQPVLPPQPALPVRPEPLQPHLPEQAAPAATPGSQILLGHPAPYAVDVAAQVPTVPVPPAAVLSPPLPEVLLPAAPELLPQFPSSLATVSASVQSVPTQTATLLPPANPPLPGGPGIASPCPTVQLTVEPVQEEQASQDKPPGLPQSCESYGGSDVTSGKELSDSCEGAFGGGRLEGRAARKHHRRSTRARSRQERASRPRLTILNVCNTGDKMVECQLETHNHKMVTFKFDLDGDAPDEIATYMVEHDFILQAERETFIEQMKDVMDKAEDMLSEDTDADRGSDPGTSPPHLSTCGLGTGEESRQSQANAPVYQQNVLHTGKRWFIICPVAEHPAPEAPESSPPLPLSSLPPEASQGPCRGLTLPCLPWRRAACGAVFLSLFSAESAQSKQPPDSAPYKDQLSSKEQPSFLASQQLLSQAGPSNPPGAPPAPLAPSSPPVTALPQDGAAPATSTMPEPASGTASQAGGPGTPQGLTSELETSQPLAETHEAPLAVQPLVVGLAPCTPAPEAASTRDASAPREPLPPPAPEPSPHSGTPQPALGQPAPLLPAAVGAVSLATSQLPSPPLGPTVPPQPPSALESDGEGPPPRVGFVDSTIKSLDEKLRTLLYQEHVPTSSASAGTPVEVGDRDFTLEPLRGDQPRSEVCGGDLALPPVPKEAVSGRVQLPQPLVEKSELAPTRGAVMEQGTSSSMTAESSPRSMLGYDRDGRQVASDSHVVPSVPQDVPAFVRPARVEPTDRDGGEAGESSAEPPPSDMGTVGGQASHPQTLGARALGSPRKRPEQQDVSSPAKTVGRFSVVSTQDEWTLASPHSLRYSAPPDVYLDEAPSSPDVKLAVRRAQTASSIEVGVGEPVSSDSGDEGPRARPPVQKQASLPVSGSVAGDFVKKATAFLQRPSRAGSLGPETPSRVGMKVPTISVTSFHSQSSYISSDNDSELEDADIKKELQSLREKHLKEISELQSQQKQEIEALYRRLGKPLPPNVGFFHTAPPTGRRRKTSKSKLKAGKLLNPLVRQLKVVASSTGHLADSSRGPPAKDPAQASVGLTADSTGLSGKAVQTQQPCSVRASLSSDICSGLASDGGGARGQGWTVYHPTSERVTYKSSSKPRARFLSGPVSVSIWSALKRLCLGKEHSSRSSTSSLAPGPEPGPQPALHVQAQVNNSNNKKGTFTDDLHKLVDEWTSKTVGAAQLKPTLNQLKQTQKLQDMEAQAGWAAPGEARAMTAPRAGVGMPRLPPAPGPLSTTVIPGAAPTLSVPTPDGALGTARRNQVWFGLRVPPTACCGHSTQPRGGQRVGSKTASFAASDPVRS
Sequence of MEK1 (Q02750 whole entry): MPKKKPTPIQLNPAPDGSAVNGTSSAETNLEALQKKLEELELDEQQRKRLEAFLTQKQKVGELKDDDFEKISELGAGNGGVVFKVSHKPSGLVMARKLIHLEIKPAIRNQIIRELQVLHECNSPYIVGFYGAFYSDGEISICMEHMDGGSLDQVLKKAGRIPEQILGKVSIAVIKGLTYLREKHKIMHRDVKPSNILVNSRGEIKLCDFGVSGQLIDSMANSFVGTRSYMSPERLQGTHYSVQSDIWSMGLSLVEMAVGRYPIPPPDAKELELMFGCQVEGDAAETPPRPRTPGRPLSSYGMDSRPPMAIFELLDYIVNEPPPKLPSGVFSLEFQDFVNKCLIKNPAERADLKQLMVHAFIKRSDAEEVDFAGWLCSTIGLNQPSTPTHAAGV

SMILES: COc1cc(-c2cncc(-c3ccc(N4CCN(C)CC4)cc3)c2C)cc(F)c1C(N)=O [Compound 26a, 2-Fluoro-6-methoxy-4-(4-methyl-5-(4-(4-methylpiperazin-1-yl)phenyl)pyridin-3-yl)benzamide]
- % enzyme activity (CAMK2d): 94.73%
- remaining activity at 1 µM (WNK2): 95.5%
- % enzyme activity (MEK1): 97.44%
- % enzyme activity (MEKK3): 93.57%
- % enzyme activity (DAPK1): 94.56%
- % enzyme activity (LKB1): 79.50%
- % enzyme activity (SGK2): 100.43%
- remaining activity at 1 µM (MLK2/MAP3K10): 86.4%

SMILES: COc1cc(-c2cncc(-c3ccc(N4C[C@@H](C)N(C)[C@@H](C)C4)cc3)c2C)cc(F)c1C(N)=O [Compound 26c, 2-Fluoro-6-methoxy-4-(4-methyl-5-(4-((3R,5S)-3,4,5-trimethylpiperazin-1-yl)phenyl)pyridin-3-yl)benzamide]
- % enzyme activity (CAMK2d): 95.15%
- remaining activity at 1 µM (WNK2): 96.9%
- % enzyme activity (MEK1): 93.40%
- % enzyme activity (MEKK3): 100.00%
- % enzyme activity (DAPK1): 96.25%
- % enzyme activity (LKB1): 90.86%
- % enzyme activity (SGK2): 100.91%
- remaining activity at 1 µM (MLK2/MAP3K10): 98.5%
